Reference: patent publication US20210106542A1, “COMPOSITION AND METHOD FOR INHIBITING PLATELET AGGREGATION” (priority 2015, published 2021)

Tests used:
thrombin production = assay: Thrombin generation test; type: biochemical, human
Protocol: Thrombin generation test, a clinical test to determine if a drug impedes blood clotting, was conducted as described below. […] The results are shown in Table 11, below, and in FIG. 5. The RQN combination decreased thrombin in a manner similar to other commonly used anti-platelet drugs, further indicating the safety of the RQN combination.

SAPs = assay: SAP reduction compared to known anti-platelet drugs; type: cell-based, human
Protocol: SAPs were analyzed in the presence of resveratrol, quercetin, and naltrexone and compared to known anti-platelet drugs. Student's t-test with Turkey Post Hoc correction was used to determine significance levels comparing untreated to drug treated samples. The appropriate doses for other anti-platelet drugs were established by routine clinical use.

[1] = system: control subject platelets; assay: SAP levels at varying doses of R, Q, N alone or in combination, control subject; type: cell-based, human; conditions: control patient
Protocol: (§1) Resveratrol, quercetin and naltrexone were tested in vitro using 100-microliter assay solutions with (A) a control subject platelets and (B) a POAG subject platelets. A marked reduction in SAPs at 1 μM resveratrol, 1 μM quercetin, 1 μM naltrexone in both the control subject platelets and the POAG patient's platelets was observed, representing a synergistic decrease as compared to the compounds alone.

POAG subject platelets = assay: SAP levels at varying doses of R, Q, N alone or in combination, POAG subject; type: cell-based, human; conditions: POAG patient
Protocol: as §1

[2] = cited from earlier work; for Bioavailability: literature reference
[3] = system: superactivated platelets (SAPs); assay: SAP inhibition by combinatorial drug treatment (flow cytometry of PRP); type: cell-based, human; conditions: 50 μM; PRP 30 minutes at 37° C.; normalized relative to Control
Protocol: A venipuncture sample of 10 mL of blood is obtained from each patient. Of the 10 mL, a 3 mL aliquot of blood is added to a tube containing 0.5 mL of acid-citrate-dextrose solution (38 mM citric acid, 75 mM sodium citrate, 135 mM glucose) to prevent clotting. […] After centrifuging at 1100 rpm for 10 minutes at room temperature, platelet rich plasma (PRP), which is the upper layer, is removed. The PRP is transferred to a new tube, leaving about 0.5 mL above the buffy coat layer. The PRP-containing tube is incubated with 10 μL of thrombin and convulxin, two agonists that activate the platelets, for five minutes. […] APC-SA recognizes superactivated platelets that more readily bind the biotinylated fibrinogen to their surface. […]
Each sample is analyzed by a Beckman Coulter CyAn flow cytometer (Beckman Coulter, Fullerton, Calif.). Results are analyzed by the Summit program (Beckman Coulter). […] The SAPs are expressed as a percentage of the total number of events in the sample. […]
Aliquots of platelet rich plasma (PRP) were incubated with aqueous saline solutions of resveratrol only, quercetin only, naltrexone only, and with an admixture of resveratrol, quercetin and naltrexone (RQN) for a time period of 30 minutes at 37° C. […] Multi-color immunofluorescence was noted, and analyzed as described in Example 1, above.

O=C(NC[C@H]1CN(c2ccc(N3CCOCC3=O)cc2)C(=O)O1)c1ccc(Cl)s1 [Rivaroxaban]
Thrombin % Decrease (thrombin production; 1 μM, Alzheimer's (n = 6)): −186.56%
Thrombin % Decrease (thrombin production; 1 μM, Control (n = 6)): −183.06%
Thrombin % Decrease (thrombin production; 1 μM, POAG (n = 6)): −184.65%
SAP % Decrease (SAPs; 1 μM, Alzheimer's (n = 6)): −15.63%
SAP % Decrease (SAPs; 1 μM, Control (n = 6)): −23.38%
SAP % Decrease (SAPs; 1 μM, POAG (n = 6)): −48.73%

Dabigatran
Thrombin % Decrease (thrombin production; 100 μM, Alzheimer's (n = 6)): −109.55%
Thrombin % Decrease (thrombin production; 100 μM, Control (n = 6)): −101.97%
Thrombin % Decrease (thrombin production; 100 μM, POAG (n = 6)): −100.45%
SAP % Decrease (SAPs; 100 μM, Alzheimer's (n = 6)): −8.09%
SAP % Decrease (SAPs; 100 μM, Control (n = 6)): −0.16%
SAP % Decrease (SAPs; 100 μM, POAG (n = 6)): −11.21%

Oc1ccc(/C=C/c2cc(O)cc(O)c2)cc1 [Resveratrol, 3,5,4′-trihydroxy-trans-stilbene]
SAP % ([1]; R/Q/N 1/0/0 uM): 32.20%
SAP % Change ([1]; R/Q/N 1/0/0 uM): −11.27%
SAP % ([1]; R/Q/N 5/0/0 uM): 30.98%
SAP % Change ([1]; R/Q/N 5/0/0 uM): −14.63%
SAP % ([1]; R/Q/N 10/0/0 uM): 30.24%
SAP % Change ([1]; R/Q/N 10/0/0 uM): −16.67%
SAP % (POAG subject platelets; R/Q/N 1/0/0 uM): 53.30%
SAP % Change (POAG subject platelets; R/Q/N 1/0/0 uM): −6.29%
SAP % (POAG subject platelets; R/Q/N 5/0/0 uM): 53.78%
SAP % Change (POAG subject platelets; R/Q/N 5/0/0 uM): −5.45%
SAP % (POAG subject platelets; R/Q/N 10/0/0 uM): 43.53%
SAP % Change (POAG subject platelets; R/Q/N 10/0/0 uM): −23.47%
Half-life ([2]; in vivo): 1 to 3 h
Bioavailability [2]: 5%^1

CC(C)Cc1ccc(C(C)C(=O)O)cc1 (stereo not drawn) [Ibuprofen]
Thrombin % Decrease (thrombin production; 100 μM, Alzheimer's (n = 6)): −95.08%
Thrombin % Decrease (thrombin production; 100 μM, Control (n = 6)): −106.45%
Thrombin % Decrease (thrombin production; 100 μM, POAG (n = 6)): −101.37%
SAP % Decrease (SAPs; 100 μM, Alzheimer's (n = 6)): −15.30%
SAP % Decrease (SAPs; 100 μM, Control (n = 6)): −31.40%
SAP % Decrease (SAPs; 100 μM, POAG (n = 6)): −16.84%

O=C1CC[C@@]2(O)[C@H]3Cc4ccc(O)c5c4[C@@]2(CCN3CC2CC2)[C@H]1O5 [Naltrexone, 17-(cyclopropylmethyl)-4,5α-epoxy-3,14-dihydroxymorphinan-6-one]
SAP % ([1]; R/Q/N 0/0/1 uM): 30.80%
SAP % Change ([1]; R/Q/N 0/0/1 uM): −15.13%
SAP % ([1]; R/Q/N 0/0/10 uM): 20.77%
SAP % Change ([1]; R/Q/N 0/0/10 uM): −42.77%
SAP % ([1]; R/Q/N 0/0/50 uM): 18.03%
SAP % Change ([1]; R/Q/N 0/0/50 uM): −50.32%
SAP % (POAG subject platelets; R/Q/N 0/0/1 uM): 44.27%
SAP % Change (POAG subject platelets; R/Q/N 0/0/1 uM): −22.17%
SAP % (POAG subject platelets; R/Q/N 0/0/10 uM): 40.84%
SAP % Change (POAG subject platelets; R/Q/N 0/0/10 uM): −28.20%
SAP % (POAG subject platelets; R/Q/N 0/0/50 uM): 38.93%
SAP % Change (POAG subject platelets; R/Q/N 0/0/50 uM): −31.56%
Bioavailability [2]: 33%^3
% Reduction in SAPs [3]: 52.2%
% SAPs [3]: 47.8%

O=c1c(O)c(-c2ccc(O)c(O)c2)oc2cc(O)cc(O)c12 [Quercetin, 3,3′,4′5,7-pentahydroxy-2-phenylchromen-4-one]
SAP % ([1]; R/Q/N 0/1/0 uM): 30.36%
SAP % Change ([1]; R/Q/N 0/1/0 uM): −16.34%
SAP % ([1]; R/Q/N 0/5/0 uM): 30.53%
SAP % Change ([1]; R/Q/N 0/5/0 uM): −15.87%
SAP % ([1]; R/Q/N 0/10/0 uM): 21.47%
SAP % Change ([1]; R/Q/N 0/10/0 uM): −40.84%
SAP % (POAG subject platelets; R/Q/N 0/1/0 uM): 49.18%
SAP % Change (POAG subject platelets; R/Q/N 0/1/0 uM): −13.54%
SAP % (POAG subject platelets; R/Q/N 0/5/0 uM): 48.25%
SAP % Change (POAG subject platelets; R/Q/N 0/5/0 uM): −15.17%
SAP % (POAG subject platelets; R/Q/N 0/10/0 uM): 43.27%
SAP % Change (POAG subject platelets; R/Q/N 0/10/0 uM): −23.93%
Bioavailability [2]: 11%^2

CC(=O)Oc1ccccc1C(=O)O [Aspirin]
Thrombin % Decrease (thrombin production; 100 μM, Alzheimer's (n = 6)): −75.46%
Thrombin % Decrease (thrombin production; 100 μM, Control (n = 6)): −76.05%
Thrombin % Decrease (thrombin production; 100 μM, POAG (n = 6)): −104.39%
SAP % Decrease (SAPs; 100 μM, Alzheimer's (n = 6)): −17.32%
SAP % Decrease (SAPs; 100 μM, Control (n = 6)): −17.00%
SAP % Decrease (SAPs; 100 μM, POAG (n = 6)): −26.69%
